In ChEMBL document CHEMBL3885881, “DrugMatrix”:
Several values for one entry are separate records, joined by “and”; a condition that tells them apart may be missing. Equal entries are not always repeated.

Species: Rattus norvegicus
Experiment: DrugMatrix - Regimen: Daily Repeat
Format: toxicity, organism-based, Sprague-Dawley
Design: regimen Daily Repeat, gender Male, age 6-8 weeks
Details: in vivo, po, route oral GAVAGE; for ABSOLUTE BASOPHIL / ABSOLUTE LYMPHOCYTE / ABSOLUTE MONOCYTE / ABSOLUTE SEGMENTED NEUTROPHIL / BASOPHIL / EOSINOPHIL / ERYTHROCYTE COUNT / HEMATOCRIT / HEMOGLOBIN / LEUKOCYTE COUNT / LYMPHOCYTE / MEAN CORPUSCULAR HEMOGLOBIN / MEAN CORPUSCULAR HEMOGLOBIN CONCENTRATION / MEAN CORPUSCULAR VOLUME / MONOCYTE / NEUTROPHIL / NUCLEATED RED BLOOD CELLS / PLATELET COUNT / ABSOLUTE EOSINOPHIL: tissue Blood; for ALANINE AMINOTRANSFERASE / ALBUMIN / ALKALINE PHOSPHATASE / ASPARTATE AMINOTRANSFERASE / BLOOD UREA NITROGEN / CARBON DIOXIDE / CHLORIDE / CHOLESTEROL / CREATINE PHOSPHOKINASE / CREATININE / GLUCOSE / LACTATE DEHYDROGENASE / LIPASE / PHOSPHORUS / POTASSIUM / SODIUM / TOTAL BILIRUBIN / TOTAL PROTEIN / URIC ACID: tissue Plasma
[1] = 0 mg/kg, 72 h, dose level Control, time 3 day, vehicle 100 % WATER
[2] = 0 mg/kg, 120 h, dose level Control, time 5 day, vehicle 100 % WATER
[3] = 4.5 mg/kg, 72 h, dose level Low, time 3 day, vehicle 100 % WATER
[4] = 4.5 mg/kg, 120 h, dose level Low, time 5 day, vehicle 100 % WATER
[5] = 7 mg/kg, 96 h, dose level M1, time 4 day, […]

## COc1ccc2c(c1)c(CC(=O)O)c(C)n2C(=O)c1ccc(Cl)cc1 [INDOMETHACIN]
[1]
  ABSOLUTE BASOPHIL: 0 CELLS/uL
  ABSOLUTE LYMPHOCYTE: 6747 CELLS/uL and 14108.83 CELLS/uL
  ABSOLUTE MONOCYTE: 73 CELLS/uL and 81 CELLS/uL
  ABSOLUTE SEGMENTED NEUTROPHIL: 480 CELLS/uL and 818.67 CELLS/uL
  BASOPHIL: 0%
  EOSINOPHIL: 0% and 0.67%
  ERYTHROCYTE COUNT: 5.14 x10E6/uL and 5.56 x10E6/uL
  HEMATOCRIT: 32.27% and 34.5%
  HEMOGLOBIN: 12.53 G/DL and 13.45 G/DL
  LEUKOCYTE COUNT: 7.3 x10E3/uL and 15.1 x10E3/uL
  LYMPHOCYTE: 93%
  MEAN CORPUSCULAR HEMOGLOBIN: 24.37 pg and 24.2 pg
  MEAN CORPUSCULAR HEMOGLOBIN CONCENTRATION: 38.87 G/DL and 38.98 G/DL
  MEAN CORPUSCULAR VOLUME: 62.7 fL and 62.07 fL
  MONOCYTE: 1% and 0.5%
  NEUTROPHIL: 6% and 5.83%
  NUCLEATED RED BLOOD CELLS: 0 /100WBC
  PLATELET COUNT: 1023 x10E3/uL and 1193.33 x10E3/uL
  ALANINE AMINOTRANSFERASE: 49.33 u/L and 60.33 u/L
  ALBUMIN: 3.73 G/DL and 4 G/DL
  ALKALINE PHOSPHATASE: 331 u/L and 334.83 u/L
  ASPARTATE AMINOTRANSFERASE: 79.67 u/L and 74.5 u/L
  BLOOD UREA NITROGEN: 15.33 mg/dL and 13.5 mg/dL
  CARBON DIOXIDE: 30.33 mmol/L
  CHLORIDE: 100.67 MEQ/L and 98.33 MEQ/L
  CHOLESTEROL: 77 mg/dL and 71.17 mg/dL
  CREATINE PHOSPHOKINASE: 319.67 u/L and 212 u/L
  CREATININE: 0.11 mg/dL and 0.21 mg/dL
  GLUCOSE: 169 mg/dL and 173.17 mg/dL
  LACTATE DEHYDROGENASE: 113.33 u/L and 101.5 u/L
  LIPASE: 10.33 u/L and 24.17 u/L
  PHOSPHORUS: 11.97 mg/dL and 10.87 mg/dL
  POTASSIUM: 5.06 MEQ/L and 6.06 MEQ/L
  SODIUM: 144.13 MEQ/L and 140.58 MEQ/L
  TOTAL BILIRUBIN: 0.2 mg/dL and 0.17 mg/dL
  TOTAL PROTEIN: 5.8 G/DL and 5.9 G/DL
  URIC ACID: 0.57 mg/dL and 1.23 mg/dL
[2]
  ABSOLUTE BASOPHIL: 0 CELLS/uL
  ABSOLUTE EOSINOPHIL: 31.33 CELLS/uL and 34.5 CELLS/uL
  ABSOLUTE LYMPHOCYTE: 7806.33 CELLS/uL and 8181 CELLS/uL
  ABSOLUTE MONOCYTE: 202 CELLS/uL and 82.67 CELLS/uL
  ABSOLUTE SEGMENTED NEUTROPHIL: 927 CELLS/uL and 435.17 CELLS/uL
  BASOPHIL: 0%
  EOSINOPHIL: 0.33% and 0.5%
  ERYTHROCYTE COUNT: 4.96 x10E6/uL and 5.31 x10E6/uL
  HEMATOCRIT: 32.37% and 33.83%
  HEMOGLOBIN: 12.53 G/DL and 13.37 G/DL
  LEUKOCYTE COUNT: 8.97 x10E3/uL and 8.73 x10E3/uL
  LYMPHOCYTE: 87.33% and 93.5%
  MEAN CORPUSCULAR HEMOGLOBIN: 25.27 pg and 25.2 pg
  MEAN CORPUSCULAR HEMOGLOBIN CONCENTRATION: 38.7 G/DL and 39.53 G/DL
  MEAN CORPUSCULAR VOLUME: 65.23 fL and 63.73 fL
  MONOCYTE: 2.33% and 1%
  NEUTROPHIL: 10% and 5%
  NUCLEATED RED BLOOD CELLS: 0 /100WBC
  PLATELET COUNT: 1189.33 x10E3/uL and 1057.33 x10E3/uL
  ALANINE AMINOTRANSFERASE: 53.33 u/L and 54.33 u/L
  ALBUMIN: 3.97 G/DL and 4.07 G/DL
  ALKALINE PHOSPHATASE: 326 u/L and 308.67 u/L
  ASPARTATE AMINOTRANSFERASE: 59.67 u/L and 83.17 u/L
  BLOOD UREA NITROGEN: 15 mg/dL and 14 mg/dL
  CARBON DIOXIDE: 33.67 mmol/L and 34 mmol/L
  CHLORIDE: 105 MEQ/L and 98 MEQ/L
  CHOLESTEROL: 73 mg/dL and 71.33 mg/dL
  CREATINE PHOSPHOKINASE: 208.33 u/L and 266.5 u/L
  CREATININE: 0.1 mg/dL and 0.27 mg/dL
  GLUCOSE: 153.33 mg/dL and 133 mg/dL
  LACTATE DEHYDROGENASE: 62 u/L and 127 u/L
  LIPASE: 10.33 u/L and 11.67 u/L
  PHOSPHORUS: 10.93 mg/dL and 10.6 mg/dL
  POTASSIUM: 5.5 MEQ/L and 6.17 MEQ/L
  SODIUM: 147.27 MEQ/L and 142.68 MEQ/L
  TOTAL BILIRUBIN: 0.17 mg/dL and 0.15 mg/dL
  TOTAL PROTEIN: 5.87 G/DL and 6.03 G/DL
  URIC ACID: 0.4 mg/dL and 0.75 mg/dL
[3]
  ABSOLUTE BASOPHIL: 0 CELLS/uL
  ABSOLUTE EOSINOPHIL: 0 CELLS/uL
  ABSOLUTE LYMPHOCYTE: 7564.67 CELLS/uL
  ABSOLUTE MONOCYTE: 197.67 CELLS/uL
  ABSOLUTE SEGMENTED NEUTROPHIL: 937.67 CELLS/uL
  BASOPHIL: 0%
  EOSINOPHIL: 0%
  ERYTHROCYTE COUNT: 5.16 x10E6/uL
  HEMATOCRIT: 32.73%
  HEMOGLOBIN: 13.1 G/DL
  LEUKOCYTE COUNT: 8.7 x10E3/uL
  LYMPHOCYTE: 87.33%
  MEAN CORPUSCULAR HEMOGLOBIN: 25.43 pg
  MEAN CORPUSCULAR HEMOGLOBIN CONCENTRATION: 40.03 G/DL
  MEAN CORPUSCULAR VOLUME: 63.57 fL
  MONOCYTE: 2.33%
  NEUTROPHIL: 10.33%
  NUCLEATED RED BLOOD CELLS: 0 /100WBC
  PLATELET COUNT: 1131.67 x10E3/uL
  ALANINE AMINOTRANSFERASE: 52.67 u/L
  ALBUMIN: 3.9 G/DL
  ALKALINE PHOSPHATASE: 367 u/L
  ASPARTATE AMINOTRANSFERASE: 74.33 u/L
  BLOOD UREA NITROGEN: 13.67 mg/dL
  CARBON DIOXIDE: 24.67 mmol/L
  CHLORIDE: 94 MEQ/L
  CHOLESTEROL: 72.33 mg/dL
  CREATINE PHOSPHOKINASE: 273.33 u/L
  CREATININE: 0.1 mg/dL
  GLUCOSE: 165 mg/dL
  LACTATE DEHYDROGENASE: 101.67 u/L
  LIPASE: 9 u/L
  PHOSPHORUS: 11.6 mg/dL
  POTASSIUM: 5.46 MEQ/L
  SODIUM: 137.1 MEQ/L
  TOTAL BILIRUBIN: 0.13 mg/dL
  TOTAL PROTEIN: 5.7 G/DL
  URIC ACID: 0.8 mg/dL
[4]
  ABSOLUTE BASOPHIL: 0 CELLS/uL
  ABSOLUTE EOSINOPHIL: 66.67 CELLS/uL
  ABSOLUTE LYMPHOCYTE: 7873.33 CELLS/uL
  ABSOLUTE MONOCYTE: 253.33 CELLS/uL
  ABSOLUTE SEGMENTED NEUTROPHIL: 1273.33 CELLS/uL
  BASOPHIL: 0%
  EOSINOPHIL: 0.67%
  ERYTHROCYTE COUNT: 4.7 x10E6/uL
  HEMATOCRIT: 30.3%
  HEMOGLOBIN: 12.03 G/DL
  LEUKOCYTE COUNT: 9.47 x10E3/uL
  LYMPHOCYTE: 83%
  MEAN CORPUSCULAR HEMOGLOBIN: 25.6 pg
  MEAN CORPUSCULAR HEMOGLOBIN CONCENTRATION: 39.67 G/DL
  MEAN CORPUSCULAR VOLUME: 64.47 fL
  MONOCYTE: 2.67%
  NEUTROPHIL: 13.67%
  NUCLEATED RED BLOOD CELLS: 0 /100WBC
  PLATELET COUNT: 1362.67 x10E3/uL
  ALANINE AMINOTRANSFERASE: 48.67 u/L
  ALBUMIN: 3.83 G/DL
  ALKALINE PHOSPHATASE: 350.67 u/L
  ASPARTATE AMINOTRANSFERASE: 60.67 u/L
  BLOOD UREA NITROGEN: 12 mg/dL
  CARBON DIOXIDE: 32 mmol/L
  CHLORIDE: 105 MEQ/L
  CHOLESTEROL: 66.67 mg/dL
  CREATINE PHOSPHOKINASE: 173.67 u/L
  CREATININE: 0.11 mg/dL
  GLUCOSE: 154 mg/dL
  LACTATE DEHYDROGENASE: 70.33 u/L
  LIPASE: 9.67 u/L
  PHOSPHORUS: 11 mg/dL
  POTASSIUM: 5.99 MEQ/L
  SODIUM: 146.87 MEQ/L
  TOTAL BILIRUBIN: 0.2 mg/dL
  TOTAL PROTEIN: 5.77 G/DL
  URIC ACID: 0.53 mg/dL
[5]
  ABSOLUTE BASOPHIL: 0 CELLS/uL
  ABSOLUTE EOSINOPHIL: 0 CELLS/uL
  ABSOLUTE LYMPHOCYTE: 6250 cells/µL
  ABSOLUTE MONOCYTE: 160 cells/µL
  BASOPHIL: 0%
  EOSINOPHIL: 0%
  ERYTHROCYTE COUNT: 3.97 x10E6/uL
  HEMATOCRIT: 25.4%
  HEMOGLOBIN: 8.9 G/DL
  LEUKOCYTE COUNT: 12.7 x10E3/uL
  LYMPHOCYTE: 78.5%
  MEAN CORPUSCULAR HEMOGLOBIN: 22.6 pg
  MEAN CORPUSCULAR HEMOGLOBIN CONCENTRATION: 35.1 G/DL
  MEAN CORPUSCULAR VOLUME: 64.5 fL
  MONOCYTE: 2%
  NEUTROPHIL: 19.5%
